Patent US20080114047A1 (priority 2003, published 2008)
Read-outs that look alike come from different tables or passages of the source.

Key:
Plasmodium falciparum = test: Anti-protozoan data: P. falcip. IC50; format: cell-based; settings: read-out: P. falcip. IC50
[1] = test system: Trypanosoma brucei rhodesiense; test: Anti-protozoan data: T.b.r. IC50; format: cell-based; settings: read-out: T.b.r. IC50
[2] = test system: L. donovani axenic amastigotes; test: In vitro anti-leishmania activity (IC50 vs. L. donovani axenic amastigotes); format: cell-based; settings: Leishmania donovani
Trypanosoma cruzi = test: Anti-protozoan data: T. cruzi IC50; format: cell-based; settings: read-out: T. cruzi IC50
[3] = Tables VI(a), VI(c), read-out: Leishmania donovani IC50
[4] = axenic amastigotes, Tables I-V, read-out: IC50 vs. L. donovani

Compound | IC50 (Plasmodium falciparum; Tables VI(a), VI(c)) | IC50 ([1]; Tables VI(a), VI(c)) | melting point | IC50 [2, 3] | IC50 [2, 4] | IC50 (in vitro) | IC50 (Plasmodium falciparum) | IC50 [1] | IC50 ([2]; read-out: L. Donovani IC50) | IC50 (Trypanosoma cruzi) | IC50 (Trypanosoma cruzi; Tables VI(a), VI(c))
CC(C)NC(=N)c1ccc(OCCCCOc2cccc(-c3cc4cc(C(=N)NC(C)C)ccc4o3)c2)cc1.Cl.Cl [Compound 36, 2-(3-(4-(4-(N-Isopropylcarbamimidoyl)phenoxy)butoxy)phenyl)-N-isopropylbenzofuran-5-carboxamidine dihydrochloride] | 0.269 µM | 0.537 µM | 207 to 210 °C | 11.2 ± 0.04 µM | 11.2 ± 0.04 µM | 36.5 µM | – | – | – | – | –
Cl.Cl.c1cc(OCCCCOc2ccc(C3=NCCN3)cc2)cc(-c2cc3cc(C4=NCCN4)ccc3o2)c1 [Compound 37, 2-(2-(3-(4-(4-(4,5-Dihydro-1H-imidazol-2-yl)phenoxy)butoxy)phenyl)benzofuran-5-yl)-4,5-dihydro-1H-imidazole dihydrochloride] | 0.0986 µM | 1.17 µM | 190 to 195 °C | 11.7 ± 0.14 µM | 11.7 ± 0.14 µM | 9.52 µM | – | – | – | – | –
Cl.Cl.N=C(N)c1ccc(OCCCCCCOc2cccc(-c3cc4cc(C(=N)N)ccc4o3)c2)cc1 [Compound 41, 2-(3-(6-(4-Carbamimidoylphenoxy)hexyloxy)phenyl)benzofuran-5-carboxamidine dihydrochloride] | 0.43 µM | 1.61 µM | 208 to 210 °C | 22.6 ± 0.23 µM | 22.6 ± 0.23 µM | 3.12 µM | – | – | – | – | –
CC(C)NC(=N)c1ccc(OCCCCCCOc2cccc(-c3cc4cc(C(=N)NC(C)C)ccc4o3)c2)cc1.Cl.Cl [Compound 42, 2-(3-(6-(4-(N-Isopropylcarbamimidoyl)phenoxy)hexyloxy)phenyl)-N-isopropylbenzofuran-5-carboxamidine dihydrochloride] | 0.183 µM | 1.16 µM | 224 to 227 °C | 6.97 ± 1.39 µM | 6.97 ± 1.39 µM | 7.36 µM | – | – | – | – | –
c1cc(OCCCCCCOc2ccc(C3=NCCN3)cc2)cc(-c2cc3cc(C4=NCCN4)ccc3o2)c1 [Compound 43, 2-(2-(3-(6-(4-(4,5-Dihydro-1H-imidazol-2-yl)phenoxy)hexyloxy)phenyl)benzofuran-5-yl)-4,5-dihydro-1H-imidazole] | 0.0494 µM | 0.996 µM | – | 1.92 ± 0.19 µM | – | 2.46 µM | – | – | – | – | –
CC(C)NC(=N)c1ccc(OCCCCOc2cccc(-c3cc4ccc(C(=N)NC(C)C)cc4o3)c2)cc1.Cl.Cl [Compound 60, 2-(3-(4-(4-(N-Isopropylcarbamimidoyl)phenoxy)butoxy)phenyl)-N-isopropylbenzofuran-6-carboxamidine dihydrochloride] | 0.178 µM | 0.936 µM | 228 to 230 °C | 12.3 ± 0.09 µM | 12.3 ± 0.09 µM | 46.5 µM | – | – | – | – | –
Cl.Cl.N=C(N)c1ccc(OCCCCCCOc2cccc(-c3cc4ccc(C(=N)N)cc4o3)c2)cc1 [Compound 65, 2-(3-(6-(4-Carbamimidoylphenoxy)hexyloxy)phenyl)benzofuran-6-carboxamidine dihydrochloride] | 0.479 µM | 1.22 µM | 268 to 271 °C | 23.6 ± 1.09 µM | 23.6 ± 1.09 µM | 4.33 µM | – | – | – | – | –
CC(C)NC(=N)c1ccc(OCCCCCCOc2cccc(-c3cc4ccc(C(=N)NC(C)C)cc4o3)c2)cc1.Cl.Cl [Compound 66, 2-(3-(6-(4-(N-Isopropylcarbamimidoyl)phenoxy)hexyloxy)phenyl)-N-isopropylbenzofuran-6-carboxamidine dihydrochloride] | 0.347 µM | 0.42 µM | 283 to 285 °C | 6.18 ± 0.06 µM | 6.18 ± 0.06 µM | 10.1 µM | – | – | – | – | –
Cl.Cl.N=C(N)c1ccc(OCCCCCOc2ccc(-c3cc4ccc(C(=N)N)cc4o3)cc2)cc1 [Compound 74, 2-(4-(5-(4-Carbamimidoylphenoxy)pentyloxy)phenyl)benzofuran-6-carboxamidine dihydrochloride] | 0.268 µM | 0.314 µM | 285 °C (dec.) | 2.9 ± 0.14 µM | – | 8.98 µM | – | – | – | – | –
Cl.Cl.N=C(N)c1ccc(OCCCCCCOc2ccc(-c3cc4ccc(C(=N)N)cc4o3)cc2)cc1 [Compound 77, 2-(4-(6-(4-Carbamimidoylphenoxy)hexyloxy)phenyl)benzofuran-6-carboxamidine dihydrochloride] | 0.28 µM | 0.416 µM | 310 to 311 °C | – | – | 8.02 µM | – | – | – | – | –
CC(C)NC(=N)c1ccc(-c2cc3cc(C(=N)NC(C)C)ccc3o2)cc1 [Compound 164, 2-(4-(N-isopropylcarbamimidoyl)phenyl)-N-isopropylbenzofuran-5-carboxamidine] | – | – | – | – | – | > 198 µM | 0.073 µM | 0.125 µM | 1.58 ± 1.09 µM | > 198 µM | –
N=C(N)c1cccc(-c2cc3ccc(C(=N)N)cc3o2)c1 [Compound 169, 2-(3-carbamimidoylphenyl)benzofuran-6-carboxamidine] | – | – | – | – | 14.4 µM | 131 µM | 0.0035 µM | 0.021 µM | 14.4 µM | – | –
CC(C)NC(=N)c1cccc(-c2cc3ccc(C(=N)NC(C)C)cc3o2)c1 [Compound 170, 2-(3-(N-isopropylcarbamimidoyl)phenyl)-N-isopropylbenzofuran-6-carboxamidine] | – | – | – | – | 24.4 ± 0.1 µM | > 200 µM | 0.0586 µM | 0.534 µM | 24.4 ± 0.1 µM | – | –
c1cc(C2=NCCN2)cc(-c2cc3ccc(C4=NCCN4)cc3o2)c1 [Compound 171, 2-(3-(6-(4,5-dihydro-1H-imidazol-2-yl)benzofuran-2-yl)phenyl)-4,5-dihydro-1H-imidazole] | – | – | – | – | > 100 µM | 12.8 µM | 0.205 µM | 0.333 µM | > 100 µM | – | –
N=C(N)c1ccc(-c2cc3ccc(C(=N)N)cc3o2)cc1 [Compound 172, 2-(4-carbamimidoylphenyl)benzofuran-6-carboxamidine] | – | – | – | – | 3.13 ± 0.15 µM | 0.83 µM | 0.0031 µM | 0.0069 µM | 3.13 ± 0.15 µM | – | –
CC(C)NC(=N)c1ccc(-c2cc3ccc(C(=N)NC(C)C)cc3o2)cc1 [Compound 173, 2-(4-(N-isopropylcarbamimidoyl)phenyl)-N-isopropylbenzofuran-6-carboxamidine] | – | – | – | – | 11.8 ± 1.28 µM | > 199 µM | 0.0145 µM | 0.148 µM | 11.8 ± 1.28 µM | – | –
c1cc(-c2cc3ccc(C4=NCCN4)cc3o2)ccc1C1=NCCN1 [Compound 174, 2-(4-(6-(4,5-dihydro-1H-imidazol-2-yl)benzofuran-2-yl)phenyl)-4,5-dihydro-1H-imidazole] | – | – | – | – | > 50 µM | 4.52 µM | 0.109 µM | 0.319 µM | > 50 µM | – | –
COc1cc(C(=N)N)cc2cc(-c3ccc(C(=N)N)cc3)oc12 [Compound 175, 2-(4-carbamimidoylphenyl)-7-methoxybenzofuran-5-carboxamidine] | – | – | – | – | 3 ± 0.56 µM | 30.7 µM | 0.0056 µM | 0.006 µM | 3 ± 0.56 µM | – | –
COc1cc(C2=NCCN2)cc2cc(-c3ccc(C4=NCCN4)cc3)oc12 [Compound 177, 2-(4-(5-(4,5-dihydro-1H-imidazol-2-yl)-7-methoxybenzofuran-2-yl)phenyl)-4,5-dihydro-1H-imidazole] | – | – | – | – | 4.45 ± 0.36 µM | 19.9 µM | 0.0323 µM | 0.124 µM | 4.45 ± 0.36 µM | – | –
CONC(=N)c1ccc(-c2cc3cc(C(=N)NOC)ccc3o2)cc1 [Compound 179, 2-(4-(N-Methoxycarbamimidoyl)phenyl)-N-methoxybenzofuran-5-carboxamidine] | – | – | – | – | – | > 219 µM | 2.5 µM | 75.4 µM | > 100 µM | > 219 µM | –
N=C(NO)c1cccc(-c2cc3ccc(C(=N)NO)cc3o2)c1 [Compound 180, 2-(3-(N-Hydroxycarbamimidoyl)phenyl)-N-hydroxybenzofuran-6-carboxamidine] | – | – | – | – | – | 13.8 µM | 1.85 µM | 37.8 µM | 68.5 ± 6.16 µM | – | –
N=C(NO)c1ccc(-c2cc3ccc(C(=N)NO)cc3o2)cc1 [Compound 181, 2-(4-(N-Hydroxycarbamimidoyl)phenyl)-N-hydroxybenzofuran-6-carboxamidine] | – | – | – | – | – | > 222 µM | 0.609 µM | 3.1 µM | > 100 µM | – | –
N=C(NO)c1ccc2cc(CCCCCc3cc4ccc(C(=N)NO)cc4o3)oc2c1 [Compound 184, 2-(5-(6-(N-Hydroxycarbamimidoyl)benzofuran-2-yl)pentyl)-N-hydroxybenzofuran-6-carboxamidine] | 17.2 µM | 2.2 µM | – | 22.2 ± 0.64 µM | – | 19.4 µM | – | – | – | – | 4.9 µM
N=C(NO)c1ccc2oc(CCCc3cc4cc(C(=N)NO)ccc4o3)cc2c1 [Compound 185, 2-(3-(5-(N-Hydroxycarbamimidoyl)benzofuran-2-yl)propyl)-N-hydroxybenzofuran-5-carboxamidine] | > 2 µM | 4.79 µM | – | > 50 µM | – | 23.8 µM | – | – | – | – | 9.4 µM
N=C(NO)c1ccc2oc(CCCCc3cc4cc(C(=N)NO)ccc4o3)cc2c1 [Compound 186, 2-(4-(5-(N-Hydroxycarbamimidoyl)benzofuran-2-yl)butyl)-N-hydroxybenzofuran-5-carboxamidine] | > 2 µM | 4.87 µM | – | > 100 µM | – | > 184 µM | – | – | – | – | 152 µM
N=C(NO)c1ccc2oc(CCc3cc4cc(C(=N)NO)ccc4o3)cc2c1 [Compound 190, 2-(2-(5-(N-Hydroxycarbamimidoyl)benzofuran-2-yl)ethyl)-N-hydroxybenzofuran-5-carboxamidine] | 0.4 µM | 10.1 µM | – | – | – | > 199 µM | – | – | – | – | –
